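Five concentrations, 48 hours, 96-well plates. Abbreviation: GI50, concentration required for 50% inhibition of growth.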 Calls of active or inactive are those of the source. No stated cut-off is given here; in the data, active = GI50 up to about 1.1 µM and inactive = higher.
Legend:
Assay in all cases: NCI tumour cell line growth inhibition, 48 h
SF-268 = test system: SF-268
SNB-75 = test system: SNB-75
M14 = test system: M14
NCI/ADR-RES = test system: NCI/ADR-RES
786-0 = test system: 786-0
NCI-H460 = test system: NCI-H460
SK-MEL-5 = test system: SK-MEL-5
CAKI-1 = test system: CAKI-1
CCRF-CEM = test system: CCRF-CEM
TK-10 = test system: TK-10
RXF 393 = test system: RXF 393
MDA-MB-231 = test system: MDA-MB-231
U-251 = test system: U-251
NCI-H226 = test system: NCI-H226
COLO 205 = test system: COLO 205
UACC-62 = test system: UACC-62
HCC 2998 = test system: HCC 2998
EKVX = test system: EKVX
UO-31 = test system: UO-31
HCT-15 = test system: HCT-15
NCI-H23 = test system: NCI-H23
Malme-3M = test system: Malme-3M
OVCAR-8 = test system: OVCAR-8
MCF7 = test system: MCF7
SK-OV-3 = test system: SK-OV-3
MOLT-4 = test system: MOLT-4
NCI-H522 = test system: NCI-H522
MDA-N = test system: MDA-N
Hs-578T = test system: Hs-578T
HT-29 = test system: HT-29
T47D = test system: T47D
HOP-92 = test system: HOP-92
SF-539 = test system: SF-539
LOX IMVI = test system: LOX IMVI
PC-3 = test system: PC-3
A549 = test system: A549
SNB-19 = test system: SNB-19
OVCAR-4 = test system: OVCAR-4
A498 = test system: A498
DU-145 = test system: DU-145
KM12 = test system: KM12
UACC-257 = test system: UACC-257
HOP-62 = test system: HOP-62
HCT-116 = test system: HCT-116
ACHN = test system: ACHN
MDA-MB-435 = test system: MDA-MB-435
SF-295 = test system: SF-295
RPMI-8226 = test system: RPMI-8226
OVCAR-3 = test system: OVCAR-3
SN12C = test system: SN12C
K562 = test system: K562
SK-MEL-2 = test system: SK-MEL-2
IGROV-1 = test system: IGROV-1
BT-549 = test system: BT-549
OVCAR-5 = test system: OVCAR-5
SK-MEL-28 = test system: SK-MEL-28
SW-620 = test system: SW-620
HL-60 = test system: HL-60
SR = test system: SR

## C[C@]12CC/C(=N\OCCN3CCCC3)C=C1CCC1C2CC[C@@]2(C)C1CC[C@]2(C)O (some centres undefined)
SF-268
  GI50: 13.3 µM (inactive)
SNB-75
  GI50: 2.3 µM (inactive)
M14
  GI50: 13.9 µM (inactive)
NCI/ADR-RES
  GI50: 3.6 µM (inactive)
786-0
  GI50: 4.43 µM (inactive)
NCI-H460
  GI50: 3.97 µM (inactive)
SK-MEL-5
  GI50: 14.8 µM (inactive)
CAKI-1
  GI50: 7.43 µM (inactive)
CCRF-CEM
  GI50: 3.56 µM (inactive)
TK-10
  GI50: 15.8 µM (inactive)
RXF 393
  GI50: 19.3 µM (inactive)
MDA-MB-231
  GI50: 16.6 µM (inactive)
U-251
  GI50: 7.11 µM (inactive)
NCI-H226
  GI50: 2.9 µM (inactive)
COLO 205
  GI50: 3.4 µM (inactive)
UACC-62
  GI50: 3.35 µM (inactive)
HCC 2998
  GI50: 11.8 µM (inactive)
EKVX
  GI50: 6.93 µM (inactive)
UO-31
  GI50: 11.7 µM (inactive)
HCT-15
  GI50: 3.29 µM
NCI-H23
  GI50: 12.2 µM (inactive)
Malme-3M
  GI50: 5.21 µM (inactive)
OVCAR-8
  GI50: 14 µM (inactive)
MCF7
  GI50: 5.37 µM (inactive)
SK-OV-3
  GI50: 18.5 µM (inactive)
MOLT-4
  GI50: 3.74 µM (inactive)
NCI-H522
  GI50: 3.12 µM (inactive)
MDA-N
  GI50: 2.56 µM (inactive)
Hs-578T
  GI50: 13.8 µM (inactive)
HT-29
  GI50: 1.25 µM (inactive)
T47D
  GI50: 12.3 µM (inactive)
HOP-92
  GI50: 11.7 µM (inactive)
SF-539
  GI50: 6.62 µM (inactive)
LOX IMVI
  GI50: 4.33 µM (inactive)
PC-3
  GI50: 7.29 µM (inactive)
A549
  GI50: 11.5 µM (inactive)
SNB-19
  GI50: 14.7 µM (inactive)
OVCAR-4
  GI50: 16.1 µM (inactive)
A498
  GI50: 0.647 µM (active)
DU-145
  GI50: 11.3 µM (inactive)
KM12
  GI50: 5.09 µM (inactive)
UACC-257
  GI50: 5.6 µM (inactive)
HOP-62
  GI50: 13.1 µM (inactive)
HCT-116
  GI50: 5.16 µM (inactive)
ACHN
  GI50: 11.1 µM (inactive)
MDA-MB-435
  GI50: 2.28 µM (inactive)
SF-295
  GI50: 3.35 µM (inactive)
RPMI-8226
  GI50: 2.83 µM (inactive)
OVCAR-3
  GI50: 8.39 µM (inactive)
SN12C
  GI50: 7.13 µM (inactive)
K562
  GI50: 2.4 µM (inactive)
SK-MEL-2
  GI50: 16.4 µM (inactive)
IGROV-1
  GI50: 8.95 µM (inactive)
BT-549
  GI50: 10.2 µM (inactive)
OVCAR-5
  GI50: 33.3 µM (inactive)

## c1ccc(-c2cc(-c3ccncc3)cc(-c3ccncc3)n2)cc1
SF-268
  GI50: 45.6 µM (inactive)
SNB-75
  GI50: 29 µM (inactive)
M14
  GI50: > 100 µM (inactive)
NCI/ADR-RES
  GI50: > 100 µM (inactive)
786-0
  GI50: 69.3 µM (inactive)
SK-MEL-28
  GI50: > 100 µM (inactive)
SK-MEL-5
  GI50: > 100 µM (inactive)
CAKI-1
  GI50: > 100 µM (inactive)
CCRF-CEM
  GI50: > 100 µM (inactive)
TK-10
  GI50: > 100 µM (inactive)
RXF 393
  GI50: > 100 µM (inactive)
MDA-MB-231
  GI50: > 100 µM (inactive)
U-251
  GI50: 51.3 µM (inactive)
NCI-H226
  GI50: > 100 µM (inactive)
COLO 205
  GI50: > 100 µM (inactive)
UACC-62
  GI50: > 100 µM (inactive)
HCC 2998
  GI50: > 100 µM (inactive)
EKVX
  GI50: > 100 µM (inactive)
UO-31
  GI50: > 100 µM (inactive)
SW-620
  GI50: > 100 µM (inactive)
HCT-15
  GI50: > 100 µM
NCI-H23
  GI50: > 100 µM (inactive)
Malme-3M
  GI50: > 100 µM (inactive)
OVCAR-8
  GI50: > 100 µM (inactive)
MCF7
  GI50: 0.618 µM (active)
SK-OV-3
  GI50: 80.7 µM (inactive)
MOLT-4
  GI50: > 100 µM (inactive)
NCI-H522
  GI50: 18.2 µM (inactive)
MDA-N
  GI50: > 100 µM (inactive)
Hs-578T
  GI50: 38.5 µM (inactive)
HT-29
  GI50: > 100 µM (inactive)
T47D
  GI50: > 100 µM (inactive)
HL-60
  GI50: > 100 µM (inactive)
LOX IMVI
  GI50: > 100 µM (inactive)
PC-3
  GI50: > 100 µM (inactive)
A549
  GI50: > 100 µM (inactive)
SNB-19
  GI50: 45.2 µM (inactive)
SR
  GI50: > 100 µM (inactive)
OVCAR-4
  GI50: > 100 µM (inactive)
DU-145
  GI50: > 100 µM (inactive)
KM12
  GI50: > 100 µM (inactive)
UACC-257
  GI50: > 100 µM (inactive)
HOP-62
  GI50: 33.3 µM (inactive)
HCT-116
  GI50: > 100 µM (inactive)
ACHN
  GI50: > 100 µM (inactive)
MDA-MB-435
  GI50: > 100 µM (inactive)
SF-295
  GI50: 62.2 µM (inactive)
RPMI-8226
  GI50: > 100 µM (inactive)
OVCAR-3
  GI50: > 100 µM (inactive)
SN12C
  GI50: > 100 µM (inactive)
K562
  GI50: > 100 µM (inactive)
SK-MEL-2
  GI50: > 100 µM (inactive)
IGROV-1
  GI50: > 100 µM (inactive)
BT-549
  GI50: > 100 µM (inactive)
OVCAR-5
  GI50: > 100 µM (inactive)

## COC(=O)C(C)Sc1nc2cc(Cl)ccc2s1 (centres undefined)
SF-268
  GI50: > 100 µM (inactive)
SNB-75
  GI50: > 100 µM (inactive)
M14
  GI50: > 100 µM (inactive)
NCI/ADR-RES
  GI50: > 100 µM (inactive)
786-0
  GI50: > 100 µM (inactive)
SK-MEL-28
  GI50: > 100 µM (inactive)
NCI-H460
  GI50: > 100 µM (inactive)
SK-MEL-5
  GI50: > 100 µM (inactive)
CAKI-1
  GI50: > 100 µM (inactive)
CCRF-CEM
  GI50: 78.5 µM (inactive)
RXF 393
  GI50: > 100 µM (inactive)
MDA-MB-231
  GI50: > 100 µM (inactive)
U-251
  GI50: > 100 µM (inactive)
NCI-H226
  GI50: > 100 µM (inactive)
COLO 205
  GI50: > 100 µM (inactive)
UACC-62
  GI50: > 100 µM (inactive)
HCC 2998
  GI50: > 100 µM (inactive)
EKVX
  GI50: > 100 µM (inactive)
UO-31
  GI50: > 100 µM (inactive)
SW-620
  GI50: > 100 µM (inactive)
HCT-15
  GI50: > 100 µM
NCI-H23
  GI50: > 100 µM (inactive)
Malme-3M
  GI50: > 100 µM (inactive)
OVCAR-8
  GI50: > 100 µM (inactive)
MCF7
  GI50: > 100 µM (inactive)
SK-OV-3
  GI50: > 100 µM (inactive)
MOLT-4
  GI50: > 100 µM (inactive)
NCI-H522
  GI50: > 100 µM (inactive)
MDA-N
  GI50: > 100 µM (inactive)
Hs-578T
  GI50: > 100 µM (inactive)
HT-29
  GI50: > 100 µM (inactive)
T47D
  GI50: > 100 µM (inactive)
HOP-92
  GI50: > 100 µM (inactive)
SF-539
  GI50: > 100 µM (inactive)
PC-3
  GI50: > 100 µM (inactive)
A549
  GI50: > 100 µM (inactive)
SNB-19
  GI50: > 100 µM (inactive)
OVCAR-4
  GI50: > 100 µM (inactive)
A498
  GI50: > 100 µM (inactive)
DU-145
  GI50: > 100 µM (inactive)
KM12
  GI50: > 100 µM (inactive)
UACC-257
  GI50: > 100 µM (inactive)
HOP-62
  GI50: > 100 µM (inactive)
HCT-116
  GI50: > 100 µM (inactive)
ACHN
  GI50: > 100 µM (inactive)
MDA-MB-435
  GI50: > 100 µM (inactive)
SF-295
  GI50: > 100 µM (inactive)
RPMI-8226
  GI50: > 100 µM (inactive)
OVCAR-3
  GI50: > 100 µM (inactive)
SN12C
  GI50: > 100 µM (inactive)
K562
  GI50: 78.9 µM (inactive)
IGROV-1
  GI50: > 100 µM (inactive)
BT-549
  GI50: > 100 µM (inactive)
OVCAR-5
  GI50: > 100 µM (inactive)

— ChEMBL document CHEMBL1201862, “PubChem BioAssay data set” (2004)
